From the NIST ThermoML archive (doi:10.1021/je060271a)
Where “and” joins values, the source holds several entries; their conditions need not be identical. Equal values may be shown once.

Conditions: 303.15 K, Liquid, Vibrating tube method

CCCCCC(=O)OCC(COC(=O)CCCCC)(COC(=O)CCCCC)COC(=O)CCCCC [pentaerythritol tetrahexanoate]
Conditions	mass density
5137.3 kPa	991.5 kg/m3
5153 kPa	991.6 kg/m3
5168.7 kPa	991.7 kg/m3
5185 kPa	991.7 kg/m3
5201.1 kPa	991.6 kg/m3
5220.3 kPa	991.6 kg/m3
5236.1 kPa	991.6 kg/m3
5252.7 kPa	991.7 kg/m3
5271.9 kPa	991.8 kg/m3
5288.3 kPa	991.7 kg/m3
5304.7 kPa	991.7 kg/m3
5321.5 kPa	991.6 kg/m3
5341.1 kPa	991.8 kg/m3
5357.3 kPa	991.8 kg/m3
5683.2 kPa	992 kg/m3
5701.2 kPa	992 kg/m3
5722.4 kPa	992 kg/m3
5740.3 kPa	992 kg/m3
5758.4 kPa	992.1 kg/m3
5780 kPa	992.1 kg/m3
5798.2 kPa	992 kg/m3
5816.3 kPa	992.1 kg/m3
5835 kPa	992.1 kg/m3
5853.7 kPa	992.1 kg/m3
5912.7 kPa	992.1 kg/m3
6092.3 kPa	992.3 kg/m3
6130.7 kPa	992.2 kg/m3
6149.9 kPa	992.4 kg/m3
6172.7 kPa	992.3 kg/m3
6191.3 kPa	992.3 kg/m3
6210.7 kPa	992.3 kg/m3
6233.5 kPa	992.3 kg/m3
6252.4 kPa	992.3 kg/m3
6271.5 kPa	992.4 kg/m3
6294.4 kPa	992.3 kg/m3
6313.7 kPa	992.3 kg/m3
6333.6 kPa	992.5 kg/m3
6354.3 kPa	992.4 kg/m3
6373.3 kPa	992.4 kg/m3
6396.3 kPa	992.4 kg/m3
6415.5 kPa	992.5 kg/m3
6434.7 kPa	992.6 kg/m3
6457.8 kPa	992.5 kg/m3
6476.9 kPa	992.5 kg/m3
6496.6 kPa	992.5 kg/m3
6516.3 kPa	992.5 kg/m3
6539.1 kPa	992.5 kg/m3
6558.1 kPa	992.5 kg/m3
6581.1 kPa	992.6 kg/m3
6600.9 kPa	992.6 kg/m3
6621.4 kPa	992.5 kg/m3
6640.4 kPa	992.6 kg/m3
6659.3 kPa	992.6 kg/m3
6681.6 kPa	992.6 kg/m3
6699.9 kPa	992.6 kg/m3
6718.5 kPa	992.7 kg/m3
6740.3 kPa	992.7 kg/m3
6758.3 kPa	992.6 kg/m3
6776.2 kPa	992.7 kg/m3
6797.8 kPa	992.7 kg/m3
6815.4 kPa	992.7 kg/m3
6833.2 kPa	992.7 kg/m3
6854.1 kPa	992.7 kg/m3
6871.8 kPa	992.8 kg/m3
6889.4 kPa	992.6 kg/m3
6907.3 kPa	992.8 kg/m3
6924.8 kPa	992.7 kg/m3
6946.2 kPa	992.8 kg/m3
6963.8 kPa	992.8 kg/m3
6981.6 kPa	992.8 kg/m3
6999.8 kPa	992.8 kg/m3
7021.5 kPa	992.9 kg/m3
7039.5 kPa	992.8 kg/m3
7057.3 kPa	992.9 kg/m3
7079.2 kPa	992.9 kg/m3
7097.5 kPa	992.8 kg/m3
7116 kPa	992.9 kg/m3
7134.1 kPa	992.9 kg/m3
7155.9 kPa	992.9 kg/m3
7174.4 kPa	992.9 kg/m3
7192.5 kPa	993 kg/m3
7214.4 kPa	993 kg/m3
7232.7 kPa	993 kg/m3
7251.4 kPa	992.9 kg/m3
7273.7 kPa	993 kg/m3
7292.3 kPa	993 kg/m3
7310.6 kPa	993 kg/m3
7333.2 kPa	993 kg/m3
7352.4 kPa	993 kg/m3
7371.4 kPa	993.1 kg/m3
7394.2 kPa	993.1 kg/m3
7413.2 kPa	993 kg/m3
7432.5 kPa	993.1 kg/m3
7451.7 kPa	993.1 kg/m3
7474.8 kPa	993.1 kg/m3
7494.2 kPa	993.1 kg/m3
7513.5 kPa	993.1 kg/m3
7533.2 kPa	993.2 kg/m3
7556.5 kPa	993.2 kg/m3
7576.2 kPa	993.2 kg/m3
7596.7 kPa	993.2 kg/m3
7616.7 kPa	993.2 kg/m3
7640.5 kPa	993.3 kg/m3
7660.7 kPa	993.2 kg/m3
7680.6 kPa	993.3 kg/m3
7700.8 kPa	993.4 kg/m3
7724.8 kPa	993.2 kg/m3
7744.8 kPa	993.2 kg/m3
7765.4 kPa	993.3 kg/m3
7785.7 kPa	993.3 kg/m3
7809.9 kPa	993.4 kg/m3
7830.6 kPa	993.4 kg/m3
7851.3 kPa	993.3 kg/m3
7876.2 kPa	993.3 kg/m3
7897.2 kPa	993.3 kg/m3
7917.7 kPa	993.4 kg/m3
7938.5 kPa	993.5 kg/m3
7963.1 kPa	993.4 kg/m3
7984.2 kPa	993.4 kg/m3
8005.2 kPa	993.6 kg/m3
8026.6 kPa	993.4 kg/m3
8051.8 kPa	993.5 kg/m3
8072.9 kPa	993.6 kg/m3
8094.6 kPa	993.3 kg/m3
8120 kPa	993.5 kg/m3
8141.2 kPa	993.6 kg/m3
8163.1 kPa	993.5 kg/m3
8186 kPa	993.6 kg/m3
8208.3 kPa	993.6 kg/m3
8233.8 kPa	993.6 kg/m3
8255.4 kPa	993.6 kg/m3
8277.5 kPa	993.6 kg/m3
8303.5 kPa	993.7 kg/m3
8325.2 kPa	993.6 kg/m3
8347.2 kPa	993.7 kg/m3
8373.2 kPa	993.7 kg/m3
8395.6 kPa	993.7 kg/m3
8417.7 kPa	993.7 kg/m3
8440.3 kPa	993.7 kg/m3
8467.9 kPa	993.8 kg/m3
8491.4 kPa	993.8 kg/m3
8513.6 kPa	993.8 kg/m3
8536.1 kPa	993.9 kg/m3
8563.5 kPa	993.6 kg/m3
8586.4 kPa	993.8 kg/m3
8609.7 kPa	993.8 kg/m3
8636.8 kPa	993.8 kg/m3
8659.9 kPa	993.9 kg/m3
8683.2 kPa	993.9 kg/m3
8710.9 kPa	993.9 kg/m3
8734.7 kPa	993.9 kg/m3
8758.2 kPa	993.9 kg/m3
8782.3 kPa	993.9 kg/m3
8806.3 kPa	994 kg/m3
8834.9 kPa	994 kg/m3
8858 kPa	993.9 kg/m3
8886.3 kPa	994 kg/m3
8910.4 kPa	994 kg/m3
8934.4 kPa	994 kg/m3
8958.2 kPa	994 kg/m3
8987 kPa	993.9 kg/m3
9010.8 kPa	994.1 kg/m3
9035.1 kPa	994.1 kg/m3
9064.4 kPa	994.1 kg/m3
9088.5 kPa	994.1 kg/m3
9118.9 kPa	994.2 kg/m3
9143 kPa	994.1 kg/m3
9168.2 kPa	994.3 kg/m3
9192.8 kPa	994.1 kg/m3
9222.6 kPa	994.1 kg/m3
9247.5 kPa	994.2 kg/m3
9272.5 kPa	994.3 kg/m3
9301.8 kPa	994.2 kg/m3
9327.6 kPa	994.2 kg/m3
9352.8 kPa	994.4 kg/m3
9378.4 kPa	994.3 kg/m3
9409.1 kPa	994.3 kg/m3
9434.6 kPa	994.3 kg/m3
9461.4 kPa	994.4 kg/m3
9492.2 kPa	994.3 kg/m3
9517.5 kPa	994.3 kg/m3
9543.4 kPa	994.4 kg/m3
9574.4 kPa	994.4 kg/m3
9600.4 kPa	994.5 kg/m3
9627 kPa	994.4 kg/m3
9658 kPa	994.6 kg/m3
9684.2 kPa	994.6 kg/m3
9710.4 kPa	994.5 kg/m3
9742.2 kPa	994.4 kg/m3
9768.8 kPa	994.5 kg/m3
9796.2 kPa	994.6 kg/m3
9828.9 kPa	994.6 kg/m3
9855.9 kPa	994.7 kg/m3
9882.5 kPa	994.6 kg/m3
9909.3 kPa	994.6 kg/m3
9941.9 kPa	994.6 kg/m3
9968.9 kPa	994.7 kg/m3
9997 kPa	994.7 kg/m3
10030 kPa	994.7 kg/m3
10057 kPa	994.7 kg/m3
10085 kPa	994.7 kg/m3
10118 kPa	994.7 kg/m3
10146 kPa	994.8 kg/m3
10174 kPa	994.8 kg/m3
10202 kPa	994.8 kg/m3
10236 kPa	994.8 kg/m3
10264 kPa	994.8 kg/m3
10297 kPa	994.8 kg/m3
10325 kPa	994.9 kg/m3
10354 kPa	994.8 kg/m3
10383 kPa	994.8 kg/m3
10417 kPa	994.9 kg/m3
10445 kPa	994.9 kg/m3
10474 kPa	995 kg/m3
10508 kPa	994.9 kg/m3
10537 kPa	994.9 kg/m3
10573 kPa	995.1 kg/m3
11095 kPa	995.5 kg/m3
11124 kPa	995.3 kg/m3
11154 kPa	995.4 kg/m3
11188 kPa	995.3 kg/m3
11217 kPa	995.4 kg/m3
11246 kPa	995.5 kg/m3
11280 kPa	995.5 kg/m3
11309 kPa	995.4 kg/m3
11338 kPa	995.5 kg/m3
11372 kPa	995.5 kg/m3
11399 kPa	995.6 kg/m3
11427 kPa	995.6 kg/m3
11649 kPa	995.6 kg/m3
11671 kPa	995.7 kg/m3
11694 kPa	995.7 kg/m3
11712 kPa	995.7 kg/m3
11728 kPa	995.6 kg/m3
11744 kPa	995.7 kg/m3
11761 kPa	995.7 kg/m3
11774 kPa	995.7 kg/m3
11800 kPa	995.8 kg/m3
11835 kPa	995.8 kg/m3
11840 kPa	995.9 kg/m3
11846 kPa	995.8 kg/m3
11853 kPa	995.9 kg/m3
11865 kPa	995.8 kg/m3
11879 kPa	995.9 kg/m3
11887 kPa	995.8 kg/m3
11892 kPa	995.9 kg/m3
11903 kPa	995.8 kg/m3
11916 kPa	995.8 kg/m3
11919 kPa	995.9 kg/m3
11920 kPa	995.9 kg/m3 and 995.8 kg/m3 and 995.7 kg/m3
11921 kPa	995.9 kg/m3
11922 kPa	995.8 kg/m3 and 995.9 kg/m3
11923 kPa	995.8 kg/m3
12035 kPa	995.9 kg/m3
12053 kPa	996 kg/m3
12071 kPa	995.9 kg/m3
12092 kPa	995.9 kg/m3
12111 kPa	995.9 kg/m3
12129 kPa	996 kg/m3
12151 kPa	996.1 kg/m3
12169 kPa	996 kg/m3
12188 kPa	995.9 kg/m3
12212 kPa	996 kg/m3
12226 kPa	996.1 kg/m3
12248 kPa	996 kg/m3
12267 kPa	996.1 kg/m3
12285 kPa	996.1 kg/m3
12308 kPa	996.1 kg/m3
12326 kPa	996.1 kg/m3
12348 kPa	996.1 kg/m3
12367 kPa	996.1 kg/m3
12386 kPa	996.2 kg/m3
12409 kPa	996.2 kg/m3
12428 kPa	996.2 kg/m3
12448 kPa	996.1 kg/m3
12468 kPa	996.2 kg/m3
12490 kPa	996.3 kg/m3
12509 kPa	996.3 kg/m3
12529 kPa	996.2 kg/m3
12552 kPa	996.3 kg/m3
12571 kPa	996.1 kg/m3
12591 kPa	996.2 kg/m3
12610 kPa	996.3 kg/m3
12634 kPa	996.3 kg/m3
12654 kPa	996.2 kg/m3
12673 kPa	996.3 kg/m3
12697 kPa	996.4 kg/m3
12716 kPa	996.4 kg/m3
12736 kPa	996.4 kg/m3
